Experimental data published in ChEMBL document CHEMBL4507281, “Data for DCP probe BI-4394” (2021).

How the values were obtained:
[1] = molecular target: Serine/threonine-protein kinase BRSK1 (Homo sapiens) (UniProt Q8TDC3); conditions: Compound concentration 100.0 nM
[2] = molecular target: Kappa-type opioid receptor (Homo sapiens) (UniProt P41145); conditions: Compound concentration 10.0 uM
[3] = molecular target: Serine/threonine-protein kinase Nek2 (Homo sapiens) (UniProt P51955); conditions: Compound concentration 100.0 nM
[4] = molecular target: Ribosomal protein S6 kinase alpha-3 (Homo sapiens) (UniProt P51812); conditions: Compound concentration 100.0 nM
[5] = molecular target: Serine/threonine-protein kinase 17A (Homo sapiens) (UniProt Q9UEE5); conditions: Compound concentration 100.0 nM
[6] = molecular target: Calcium/calmodulin-dependent protein kinase type II subunit delta (Homo sapiens) (UniProt Q13557); conditions: Compound concentration 100.0 nM
[7] = molecular target: Hepatocyte growth factor receptor (Homo sapiens) (UniProt P08581); conditions: Compound concentration 100.0 nM
[8] = molecular target: Interleukin-1 receptor-associated kinase 1 (Homo sapiens) (UniProt P51617); conditions: Compound concentration 100.0 nM
[9] = molecular target: Delta-type opioid receptor (Homo sapiens) (UniProt P41143); conditions: Compound concentration 10.0 uM
[10] = molecular target: Cyclin-dependent kinase 16 (Homo sapiens) (UniProt Q00536); conditions: Compound concentration 100.0 nM
[11] = molecular target: Cyclin-dependent kinase-like 1 (Homo sapiens) (UniProt Q00532); conditions: Compound concentration 100.0 nM
[12] = molecular target: Calcium/calmodulin-dependent protein kinase type 1G (Homo sapiens) (UniProt Q96NX5); conditions: Compound concentration 100.0 nM
[13] = molecular target: Mitogen-activated protein kinase 14 (Homo sapiens) (UniProt Q16539); conditions: Compound concentration 100.0 nM
[14] = molecular target: Mitogen-activated protein kinase 12 (Homo sapiens) (UniProt P53778); conditions: Compound concentration 100.0 nM
[15] = molecular target: Serine/threonine-protein kinase Nek6 (Homo sapiens) (UniProt Q9HC98); conditions: Compound concentration 100.0 nM
[16] = molecular target: Serine/threonine-protein kinase MRCK alpha (Homo sapiens) (UniProt Q5VT25); conditions: Compound concentration 100.0 nM
[17] = molecular target: Serine/threonine-protein kinase MRCK beta (Homo sapiens) (UniProt Q9Y5S2); conditions: Compound concentration 100.0 nM
[18] = test system: Fibroblast growth factor receptor 3 (Homo sapiens), P22607 [G697C]; conditions: Compound concentration 100.0 nM
[19] = test system: Phosphatidylinositol 4,5-bisphosphate 3-kinase catalytic subunit alpha isoform (Homo sapiens), P42336 [Q546K]; conditions: Compound concentration 100.0 nM
[20] = molecular target: Serine/threonine-protein kinase ULK1 (Homo sapiens) (UniProt O75385); conditions: Compound concentration 100.0 nM
[21] = molecular target: Dual specificity mitogen-activated protein kinase kinase 1 (Homo sapiens) (UniProt Q02750); conditions: Compound concentration 100.0 nM
[22] = molecular target: MAP kinase-activated protein kinase 2 (Homo sapiens) (UniProt P49137); conditions: Compound concentration 100.0 nM
[23] = molecular target: Serine/threonine-protein kinase MAK (Homo sapiens) (UniProt P20794); conditions: Compound concentration 100.0 nM
[24] = test system: Mast/stem cell growth factor receptor Kit (Homo sapiens), P10721 [V559D,T670I]; conditions: Compound concentration 100.0 nM
[25] = molecular target: Serine/threonine-protein kinase 10 (Homo sapiens) (UniProt O94804); conditions: Compound concentration 100.0 nM
[26] = molecular target: Cyclin-dependent kinase 14 (Homo sapiens) (UniProt O94921); conditions: Compound concentration 100.0 nM
[27] = molecular target: Serine/threonine-protein kinase mTOR (Homo sapiens) (UniProt P42345); conditions: Compound concentration 100.0 nM
[28] = molecular target: Protein kinase C delta type (Homo sapiens) (UniProt Q05655); conditions: Compound concentration 100.0 nM
[29] = test system: Phosphatidylinositol 4,5-bisphosphate 3-kinase catalytic subunit alpha isoform (Homo sapiens), P42336 [H1047Y]; conditions: Compound concentration 100.0 nM
[30] = molecular target: Receptor tyrosine-protein kinase erbB-3 (Homo sapiens) (UniProt P21860); conditions: Compound concentration 100.0 nM
[31] = molecular target: Serine/threonine-protein kinase 17B (Homo sapiens) (UniProt O94768); conditions: Compound concentration 100.0 nM
[32] = test system: Mast/stem cell growth factor receptor Kit (Homo sapiens), P10721 [D816V]; conditions: Compound concentration 100.0 nM
[33] = test system: Proto-oncogene tyrosine-protein kinase receptor Ret (Homo sapiens), P07949 [V804M]; conditions: Compound concentration 100.0 nM
[34] = molecular target: Mitogen-activated protein kinase 9 (Homo sapiens) (UniProt P45984); conditions: Compound concentration 100.0 nM
[35] = molecular target: Citron Rho-interacting kinase (Homo sapiens) (UniProt O14578); conditions: Compound concentration 100.0 nM
[36] = molecular target: Ephrin type-A receptor 6 (Homo sapiens) (UniProt Q9UF33); conditions: Compound concentration 100.0 nM
[37] = test system: Epidermal growth factor receptor (Homo sapiens), P00533 [UNDEFINED MUTATION]; conditions: Compound concentration 100.0 nM
[38] = molecular target: Microtubule-associated serine/threonine-protein kinase 1 (Homo sapiens) (UniProt Q9Y2H9); conditions: Compound concentration 100.0 nM
[39] = molecular target: 1-phosphatidylinositol 3-phosphate 5-kinase (Homo sapiens) (UniProt Q9Y2I7); conditions: Compound concentration 100.0 nM
[40] = molecular target: Dual specificity tyrosine-phosphorylation-regulated kinase 1B (Homo sapiens) (UniProt Q9Y463); conditions: Compound concentration 100.0 nM
[41] = molecular target: 5-hydroxytryptamine receptor 2B (Homo sapiens) (UniProt P41595); conditions: Compound concentration 10.0 uM
[42] = molecular target: Serine/threonine-protein kinase haspin (Homo sapiens) (UniProt Q8TF76); conditions: Compound concentration 100.0 nM
[43] = molecular target: Tyrosine-protein kinase Srms (Homo sapiens) (UniProt Q9H3Y6); conditions: Compound concentration 100.0 nM
[44] = molecular target: Serine/threonine-protein kinase D3 (Homo sapiens) (UniProt O94806); conditions: Compound concentration 100.0 nM
[45] = molecular target: MAP kinase-interacting serine/threonine-protein kinase 2 (Homo sapiens) (UniProt Q9HBH9); conditions: Compound concentration 100.0 nM

Chain of Serine/threonine-protein kinase BRSK1 (Homo sapiens) (Q8TDC3 whole entry): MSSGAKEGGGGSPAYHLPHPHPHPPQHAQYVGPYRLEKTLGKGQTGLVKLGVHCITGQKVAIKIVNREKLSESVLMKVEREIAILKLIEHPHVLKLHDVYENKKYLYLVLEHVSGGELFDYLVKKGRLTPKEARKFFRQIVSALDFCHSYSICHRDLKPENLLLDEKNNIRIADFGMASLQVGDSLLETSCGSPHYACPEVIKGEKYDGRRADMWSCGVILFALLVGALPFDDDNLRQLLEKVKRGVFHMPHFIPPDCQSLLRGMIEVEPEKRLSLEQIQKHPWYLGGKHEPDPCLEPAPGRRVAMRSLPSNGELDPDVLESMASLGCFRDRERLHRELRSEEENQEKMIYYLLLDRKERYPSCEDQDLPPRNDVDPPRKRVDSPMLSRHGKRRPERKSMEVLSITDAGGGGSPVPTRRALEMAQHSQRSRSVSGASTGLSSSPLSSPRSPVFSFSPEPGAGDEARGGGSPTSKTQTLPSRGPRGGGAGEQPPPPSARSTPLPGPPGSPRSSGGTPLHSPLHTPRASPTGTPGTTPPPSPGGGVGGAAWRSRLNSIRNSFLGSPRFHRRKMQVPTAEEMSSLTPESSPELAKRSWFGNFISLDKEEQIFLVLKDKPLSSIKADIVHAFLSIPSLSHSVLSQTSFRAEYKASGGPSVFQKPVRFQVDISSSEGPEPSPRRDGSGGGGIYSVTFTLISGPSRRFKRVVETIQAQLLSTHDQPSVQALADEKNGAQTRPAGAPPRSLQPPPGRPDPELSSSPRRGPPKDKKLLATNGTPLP
Chain of Mitogen-activated protein kinase 12 (Homo sapiens) (P53778 whole entry): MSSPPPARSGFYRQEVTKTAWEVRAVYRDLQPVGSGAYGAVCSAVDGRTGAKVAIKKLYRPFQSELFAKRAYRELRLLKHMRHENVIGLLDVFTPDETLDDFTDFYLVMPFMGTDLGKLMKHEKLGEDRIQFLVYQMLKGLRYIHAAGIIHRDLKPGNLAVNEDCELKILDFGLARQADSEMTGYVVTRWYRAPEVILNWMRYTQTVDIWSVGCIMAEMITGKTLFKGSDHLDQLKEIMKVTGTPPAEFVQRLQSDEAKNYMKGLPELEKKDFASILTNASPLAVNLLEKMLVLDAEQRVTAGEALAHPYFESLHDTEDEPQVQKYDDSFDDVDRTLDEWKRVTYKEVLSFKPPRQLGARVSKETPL
Chain of Serine/threonine-protein kinase haspin (Homo sapiens) (Q8TF76 whole entry): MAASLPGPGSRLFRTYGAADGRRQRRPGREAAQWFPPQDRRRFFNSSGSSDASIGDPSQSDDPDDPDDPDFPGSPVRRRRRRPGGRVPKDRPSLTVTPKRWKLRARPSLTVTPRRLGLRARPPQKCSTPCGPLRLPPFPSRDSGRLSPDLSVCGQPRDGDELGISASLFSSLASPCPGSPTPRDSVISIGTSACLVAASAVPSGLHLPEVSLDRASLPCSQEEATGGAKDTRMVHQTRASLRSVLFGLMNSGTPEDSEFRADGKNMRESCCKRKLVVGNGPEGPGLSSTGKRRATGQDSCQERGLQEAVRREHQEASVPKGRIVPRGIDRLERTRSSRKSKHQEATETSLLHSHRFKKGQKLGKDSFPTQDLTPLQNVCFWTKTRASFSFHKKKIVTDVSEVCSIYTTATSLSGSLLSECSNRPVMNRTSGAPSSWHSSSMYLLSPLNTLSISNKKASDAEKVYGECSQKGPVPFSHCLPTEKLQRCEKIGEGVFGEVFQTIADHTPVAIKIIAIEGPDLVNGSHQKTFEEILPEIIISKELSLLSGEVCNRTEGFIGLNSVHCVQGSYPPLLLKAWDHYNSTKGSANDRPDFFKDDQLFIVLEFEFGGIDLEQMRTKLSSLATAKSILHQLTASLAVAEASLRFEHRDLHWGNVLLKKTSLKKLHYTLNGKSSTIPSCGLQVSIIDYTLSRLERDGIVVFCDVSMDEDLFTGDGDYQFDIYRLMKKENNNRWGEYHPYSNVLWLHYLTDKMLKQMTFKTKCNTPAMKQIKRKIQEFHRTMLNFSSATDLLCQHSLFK
Chain of Calcium/calmodulin-dependent protein kinase type II subunit delta (Homo sapiens) (Q13557 whole entry): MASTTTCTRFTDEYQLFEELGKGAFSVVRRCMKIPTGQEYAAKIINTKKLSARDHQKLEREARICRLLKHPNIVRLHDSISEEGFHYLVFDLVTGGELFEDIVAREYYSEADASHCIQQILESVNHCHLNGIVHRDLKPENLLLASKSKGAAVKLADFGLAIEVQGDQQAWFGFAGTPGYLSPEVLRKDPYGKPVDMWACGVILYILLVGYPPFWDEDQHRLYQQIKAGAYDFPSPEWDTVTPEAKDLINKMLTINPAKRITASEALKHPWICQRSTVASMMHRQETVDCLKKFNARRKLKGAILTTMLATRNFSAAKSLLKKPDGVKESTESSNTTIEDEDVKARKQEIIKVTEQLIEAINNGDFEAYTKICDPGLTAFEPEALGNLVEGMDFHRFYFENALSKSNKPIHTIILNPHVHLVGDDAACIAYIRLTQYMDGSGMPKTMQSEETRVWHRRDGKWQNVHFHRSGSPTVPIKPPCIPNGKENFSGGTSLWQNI
Chain of Protein kinase C delta type (Homo sapiens) (Q05655 whole entry, looked up, canonical isoform): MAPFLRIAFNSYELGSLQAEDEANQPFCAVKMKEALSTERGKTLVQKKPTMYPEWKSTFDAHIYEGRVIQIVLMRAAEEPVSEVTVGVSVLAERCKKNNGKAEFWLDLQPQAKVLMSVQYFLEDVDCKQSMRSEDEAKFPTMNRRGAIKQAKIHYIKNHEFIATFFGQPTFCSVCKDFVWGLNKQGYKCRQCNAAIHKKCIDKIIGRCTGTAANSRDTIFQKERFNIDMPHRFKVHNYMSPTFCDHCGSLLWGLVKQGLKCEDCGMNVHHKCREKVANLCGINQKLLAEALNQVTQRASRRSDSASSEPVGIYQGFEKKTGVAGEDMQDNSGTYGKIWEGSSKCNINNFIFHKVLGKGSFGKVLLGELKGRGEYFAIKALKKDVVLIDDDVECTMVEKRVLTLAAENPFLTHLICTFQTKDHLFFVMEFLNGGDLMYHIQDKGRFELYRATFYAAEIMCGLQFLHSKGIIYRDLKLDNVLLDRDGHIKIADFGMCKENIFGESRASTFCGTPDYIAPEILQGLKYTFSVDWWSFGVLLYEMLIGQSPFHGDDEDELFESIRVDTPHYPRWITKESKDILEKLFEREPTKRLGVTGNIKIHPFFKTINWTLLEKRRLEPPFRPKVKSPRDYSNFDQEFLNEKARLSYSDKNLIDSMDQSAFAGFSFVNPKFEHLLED
Chain of Mast/stem cell growth factor receptor Kit (Homo sapiens), P10721 [V559D,T670I] (P10721 whole entry V559D/T670I): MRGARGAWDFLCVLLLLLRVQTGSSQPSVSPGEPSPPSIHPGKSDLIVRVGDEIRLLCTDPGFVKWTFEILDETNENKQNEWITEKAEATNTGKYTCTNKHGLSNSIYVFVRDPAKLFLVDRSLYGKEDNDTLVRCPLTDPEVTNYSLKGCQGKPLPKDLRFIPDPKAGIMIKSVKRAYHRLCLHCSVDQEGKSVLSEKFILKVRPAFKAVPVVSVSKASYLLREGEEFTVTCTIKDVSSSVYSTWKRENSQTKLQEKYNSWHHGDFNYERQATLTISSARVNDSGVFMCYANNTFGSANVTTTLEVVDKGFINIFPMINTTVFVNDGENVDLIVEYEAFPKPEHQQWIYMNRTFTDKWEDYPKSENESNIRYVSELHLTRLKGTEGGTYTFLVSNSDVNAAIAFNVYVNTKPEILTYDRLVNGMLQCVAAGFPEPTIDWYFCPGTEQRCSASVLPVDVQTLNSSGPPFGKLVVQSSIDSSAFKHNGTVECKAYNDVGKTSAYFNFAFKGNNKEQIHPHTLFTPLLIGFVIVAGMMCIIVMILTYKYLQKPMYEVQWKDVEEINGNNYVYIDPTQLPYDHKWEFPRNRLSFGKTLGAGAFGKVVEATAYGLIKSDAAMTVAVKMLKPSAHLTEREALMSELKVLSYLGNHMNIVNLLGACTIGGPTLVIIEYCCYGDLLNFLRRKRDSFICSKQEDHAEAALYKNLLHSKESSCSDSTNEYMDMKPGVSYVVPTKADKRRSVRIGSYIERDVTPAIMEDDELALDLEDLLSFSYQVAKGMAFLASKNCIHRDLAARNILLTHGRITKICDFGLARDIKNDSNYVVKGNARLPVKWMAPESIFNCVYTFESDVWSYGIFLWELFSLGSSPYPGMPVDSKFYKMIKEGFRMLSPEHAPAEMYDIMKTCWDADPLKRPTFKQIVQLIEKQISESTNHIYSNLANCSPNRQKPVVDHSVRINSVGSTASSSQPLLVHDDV
Chain of 5-hydroxytryptamine receptor 2B (Homo sapiens) (P41595 whole entry): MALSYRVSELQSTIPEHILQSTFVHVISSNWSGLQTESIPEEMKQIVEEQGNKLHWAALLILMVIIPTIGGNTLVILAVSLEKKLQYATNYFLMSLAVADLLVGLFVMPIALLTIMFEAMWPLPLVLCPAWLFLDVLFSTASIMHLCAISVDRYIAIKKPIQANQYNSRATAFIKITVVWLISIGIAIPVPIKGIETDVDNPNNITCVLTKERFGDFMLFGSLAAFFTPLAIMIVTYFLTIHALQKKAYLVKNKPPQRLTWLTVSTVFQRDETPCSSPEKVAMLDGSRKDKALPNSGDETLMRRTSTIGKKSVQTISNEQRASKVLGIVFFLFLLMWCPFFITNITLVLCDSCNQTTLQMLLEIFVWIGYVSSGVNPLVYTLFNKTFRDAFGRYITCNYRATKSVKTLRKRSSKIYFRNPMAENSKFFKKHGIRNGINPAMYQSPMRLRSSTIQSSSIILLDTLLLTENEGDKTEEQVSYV
Chain of Cyclin-dependent kinase-like 1 (Homo sapiens) (Q00532 whole entry): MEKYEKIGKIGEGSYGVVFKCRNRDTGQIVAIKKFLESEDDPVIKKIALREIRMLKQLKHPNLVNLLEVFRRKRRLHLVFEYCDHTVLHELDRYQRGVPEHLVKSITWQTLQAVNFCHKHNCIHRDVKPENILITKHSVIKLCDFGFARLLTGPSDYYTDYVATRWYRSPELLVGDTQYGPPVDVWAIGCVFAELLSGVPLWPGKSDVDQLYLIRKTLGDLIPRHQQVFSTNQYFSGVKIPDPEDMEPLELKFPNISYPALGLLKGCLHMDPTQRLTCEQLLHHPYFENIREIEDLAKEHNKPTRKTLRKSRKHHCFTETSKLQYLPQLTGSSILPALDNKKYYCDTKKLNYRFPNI
Chain of Mast/stem cell growth factor receptor Kit (Homo sapiens), P10721 [D816V] (P10721 whole entry D816V): as the sequence (P10721 whole entry V559D/T670I) above, with D559V, I670T, D816V counted along it

CCOC(=O)c1cc2cc(-c3cc(C(=O)NCc4ccc(C(=O)O)cc4)nn3C)ccc2[nH]1 [BI 4394]
residual activity [1]: 100% | inhibition [2]: 27.2% | residual activity [3]: 99% | residual activity [4]: 80% | residual activity [5]: 97% | residual activity [6]: 91% | residual activity [7]: 96% | residual activity [8]: 85% | inhibition [9]: -9.42% | residual activity [10]: 75% | residual activity [11]: 77% | residual activity [12]: 100% | residual activity [13]: 100% | residual activity [14]: 77% | residual activity [15]: 95% | residual activity [16]: 100% | residual activity [17]: 88% | residual activity [18]: 92% | residual activity [19]: 95% | residual activity [20]: 87% | residual activity [21]: 90% | residual activity [22]: 72% | residual activity [23]: 100% | residual activity [24]: 96% | residual activity [25]: 100% | residual activity [26]: 100% | residual activity [27]: 100% | residual activity [28]: 90% | residual activity [29]: 77% | residual activity [30]: 81% | residual activity [31]: 100% | residual activity [32]: 100% | residual activity [33]: 76% | residual activity [34]: 96% | residual activity [35]: 100% | residual activity [36]: 94% | residual activity [37]: 100% | residual activity [38]: 87% | residual activity [39]: 100% | residual activity [40]: 100% | inhibition [41]: 8.13% | residual activity [42]: 77% | residual activity [43]: 90% | residual activity [44]: 100% | residual activity [45]: 92%

Cn1nc(C(=O)NCc2ccc(C(=O)O)cc2)cc1-c1ccc2[nH]ccc2c1 [BI 4395]
residual activity [1]: 86% | inhibition [2]: 16.8% | residual activity [3]: 95% | residual activity [4]: 70% | residual activity [5]: 92% | residual activity [6]: 83% | residual activity [7]: 100% | residual activity [8]: 93% | inhibition [9]: 0.8% | residual activity [10]: 93% | residual activity [11]: 70% | residual activity [12]: 89% | residual activity [13]: 100% | residual activity [14]: 90% | residual activity [15]: 91% | residual activity [16]: 79% | residual activity [17]: 100% | residual activity [18]: 82% | residual activity [19]: 76% | residual activity [20]: 83% | residual activity [21]: 91% | residual activity [22]: 55% | residual activity [23]: 92% | residual activity [24]: 77% | residual activity [25]: 80% | residual activity [26]: 100% | residual activity [27]: 31% | residual activity [28]: 89% | residual activity [29]: 100% | residual activity [30]: 77% | residual activity [31]: 91% | residual activity [32]: 91% | residual activity [33]: 91% | residual activity [34]: 60% | residual activity [35]: 59% | residual activity [36]: 100% | residual activity [37]: 94% | residual activity [38]: 100% | residual activity [39]: 100% | residual activity [40]: 100% | inhibition [41]: -2.75% | residual activity [42]: 77% | residual activity [43]: 81% | residual activity [44]: 89% | residual activity [45]: 96%
